# Measurements as given in publication PMC11243693, “Synthesis and Biological Evaluation of New Compounds with Nitroimidazole Moiety” (Molecules, 2024).
# Experiments:
# [1] = tested on: Micrococcus luteus ATCC 10240; test: Broth microdilution, M. luteus ATCC 10240; type: cell-based; conditions: Ml 10240
# Method in brief: (§1)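 Compounds are diluted twofold, starting at 1000 µg/mL, in Mueller-Hinton medium, supplemented with 2% glucose for the yeast strains. Wells then receive a tenfold-diluted 0.5 McFarland inoculum and incubate 18 ± 2 h at 35 ± 2 °C. Absorbance at 570 nm gives the MIC.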
# [2] = tested on: Bacillus subtilis ATCC 6633; test: Broth microdilution, B. subtilis ATCC 6633; type: cell-based; conditions: Bs 6633
# Method in brief: as §1
# [3] = tested on: Bacillus cereus ATCC 10876; test: Broth microdilution, B. cereus ATCC 10876; type: cell-based; conditions: Bc 10876
# Method in brief: as §1
# [4] = tested on: Staphylococcus aureus ATCC 43300 methicillin-resistant MRSA; test: Broth microdilution, S. aureus ATCC 43300 MRSA; type: cell-based; conditions: Sa 43300 MRSA
# Method in brief: as §1
# [5] = tested on: Candida spp.; test: Broth microdilution, Candida spp.; type: cell-based; conditions: range over both strains and the listed compounds
# Protocol: The antibacterial activity of the obtained thiosemicarbazides and hydrazide–hydrazones was determined by evaluating their ability to inhibit microbial growth in vitro using the broth microdilution method, according to the guidelines of the European Committee on Antimicrobial Susceptibility Testing (EUCAST). The method involved the preparation of microbial suspensions with a standardized density of 0.5 on the McFarland scale (equivalent to 1.5 × 10^8 colony-forming units/mL for bacteria and […] for fungi). A solution of the test substances was then prepared (initial concentration 1000 µg/mL, diluted in sterile Mueller-Hinton broth for bacteria or Mueller-Hinton with 2% glucose for fungi). The test was carried out in 96-well polystyrene flat-bottom plates (Medlab, Poland) with 100 µL of appropriate sterile microbiological medium in each well. The first wells were filled with 200 µL of the test substance, diluted to the initial concentration, and then double-decreasing dilutions were made under aseptic conditions using an automatic pipette. The final step was the addition of a 10-fold diluted microbial suspension of 2 µL. At the same time, the following controls were included: (a) medium control (100 µL of sterile medium without microorganisms added), (b) microbial viability control, (c) test substance control (dilutions without added micro-organisms), (d) positive control of the drug used in the clinic. The plates thus prepared were incubated for 18 ± 2 h at 35 ± 2 °C under conditions optimal for the growth of the test microorganisms. After incubation, the spectrophotometric absorbance at 570 nm in each well of the plate was read. The aim of this part of the study was to determine two parameters: the minimum inhibitory concentration (MIC) and the minimum bactericidal or fungicidal concentration (MBC/MFC) of the test compound. […] The MBC value was determined by adding 5 µL of the contents of each well of the plate to solid sterile MHA or MHA + 2%glc medium for bacteria and fungi, respectively. The area on the plate where 99.9% inhibition of microbial growth was observed indicated the lethal concentration. In addition, the quotient MBC(MFC)/MIC could be determined to assess the nature of the activity of the test substance. If MBC(MFC)/MIC was <4, the test substance was bactericidal/fungicidal, whereas if MBC(MFC)/MIC was ≥4, it was bacteriostatic/fungistatic. Amoxicillin (Glentham Life Sciences, USA) and nystatin (Glentham Life Sciences, USA) were used as the controls for this assay.
# The test was performed either on bacteria, comprising: Gram-positive (Staphylococcus aureus ATCC 25923, Staphylococcus aureus ATCC 6538, Staphylococcus aureus ATCC 43300 methicillin-resistant MRSA, Staphylococcus epidermidis ATCC 12228, Micrococcus luteus ATCC 10240, Bacillus subtilis ATCC 6633, Bacillus cereus ATCC 10876) and Gram-negative (Escherichia coli ATCC 25922, Pseudomonas aeruginosa ATCC 27853, Proteus mirabilis ATCC 12453, Klebsiella pneumoniae ATCC 13883) or yeast (Candida parapsilosis ATCC 22019, Candida glabrata ATCC 90030, Candida krusei ATCC 14243, Candida glabrata ATCC 15126, Candida tropicalis ATCC 1369, Candida auris CDC B11903, Candida lusitaniae ATCC 3449) reference strains from the American Type Culture Collection (ATCC) or the Centers for Disease Control and Prevention (CDC).
# [6] = tested on: Candida krusei ATCC 14243; test: Broth microdilution, C. krusei ATCC 14243; type: cell-based; conditions: Ck 14243
# Method in brief: as §1
# [7] = tested on: Gram-positive bacteria; test: Broth microdilution, Gram-positive bacteria; type: cell-based; conditions: strains as named in the sentence
# Protocol: The antibacterial activity of the obtained thiosemicarbazides and hydrazide–hydrazones was determined by evaluating their ability to inhibit microbial growth in vitro using the broth microdilution method, according to the guidelines of the European Committee on Antimicrobial Susceptibility Testing (EUCAST). The method involved the preparation of microbial suspensions with a standardized density of 0.5 on the McFarland scale (equivalent to 1.5 × 10^8 colony-forming units/mL for bacteria and […] for fungi). A solution of the test substances was then prepared (initial concentration 1000 µg/mL, diluted in sterile Mueller-Hinton broth for bacteria or Mueller-Hinton with 2% glucose for fungi). The test was carried out in 96-well polystyrene flat-bottom plates (Medlab, Poland) with 100 µL of appropriate sterile microbiological medium in each well. […] After incubation, the spectrophotometric absorbance at 570 nm in each well of the plate was read. […] The MBC value was determined by adding 5 µL of the contents of each well of the plate to solid sterile MHA or MHA + 2%glc medium for bacteria and fungi, respectively. […] In addition, the quotient MBC(MFC)/MIC could be determined to assess the nature of the activity of the test substance. […]
# [8] = tested on: Candida parapsilosis ATCC 22019; test: Broth microdilution, C. parapsilosis ATCC 22019; type: cell-based; conditions: Cp 22019
# Method in brief: as §1
# [9] = tested on: Candida glabrata ATCC 90030; test: Broth microdilution, C. glabrata ATCC 90030; type: cell-based; conditions: Cg 90030
# Method in brief: as §1
# [10] = tested on: Candida lusitaniae ATCC 3449; test: Broth microdilution, C. lusitaniae ATCC 3449; type: cell-based; conditions: Cl 3449
# Method in brief: as §1
# [11] = tested on: Staphylococcus aureus ATCC 25923; test: Broth microdilution, S. aureus ATCC 25923; type: cell-based; conditions: Sa 25923
# Method in brief: as §1
# [12] = tested on: Staphylococcus epidermidis ATCC 12228; test: Broth microdilution, S. epidermidis ATCC 12228; type: cell-based; conditions: Se 12228
# Method in brief: as §1
# [13] = tested on: Candida tropicalis ATCC 1369; test: Broth microdilution, C. tropicalis ATCC 1369; type: cell-based; conditions: Ct 1369
# Method in brief: as §1
# [14] = tested on: Candida glabrata ATCC 15126; test: Broth microdilution, C. glabrata ATCC 15126; type: cell-based; conditions: Cg 15126
# Method in brief: as §1
# [15] = tested on: Staphylococcus aureus ATCC 6538; test: Broth microdilution, S. aureus ATCC 6538; type: cell-based; conditions: Sa 6538
# Method in brief: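 MIC: A570 after 18 ± 2 h, 35 ± 2 °C. Medium: MH broth (bacterium) or MH + 2% glucose (yeasts). Serial 2-fold dilutions of compound, top solution 1000 µg/mL. Inoculum: 0.5 McFarland suspension diluted 10×. MBC/MFC: subculture onto MHA or MHA + 2% glc, 99.9% growth inhibition.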
# [16] = tested on: Candida auris CDC B11903; test: Broth microdilution, C. auris CDC B11903; type: cell-based; conditions: Ca B11903
# Method in brief: as §1
# [17] = tested on: normal and cancer cell lines; test: MTT assay, normal and cancer cell lines; type: cell-based, human; conditions: in words, 1 to 100 µM, 24 h
# Protocol: Colon cancer (SW480), breast adenocarcinoma (MDA-MB-231), lung carcinoma (A-549), prostate cancer (PC3), and immortal keratinocyte (HaCaT) cell lines of human origin were acquired from the American Type Culture Collection (ATCC). The recommended culture media and protocols provided by ATCC were as follows: SW480 were cultured in Minimum Essential Medium (MEM), MDA-MB-231, A-549, and HaCaT cells were cultured in Dulbecco’s Modified Eagle Medium (DMEM), while PC3 was cultured in Roswell Park Memorial Institute Medium (RPMI). The culture media were supplemented with 10% fetal bovine serum (FBS), penicillin (100 U/mL), and streptomycin (100 μg/mL). Cells were maintained in a humidified incubator at 37 °C with 5% CO2. Passaging was carried out upon reaching 80–90% confluence using 0.25% trypsin (Gibco Life Technologies, New York, NY, USA) treatment prior to experimentation.
# Cell viability was assessed utilizing the MTT assay, which relies on the conversion of 3-(4,5-dimethylthiazol-2-yl)-2,5-diphenyltetrazolium bromide salt (MTT) to formazan crystals by mitochondrial dehydrogenases in viable cells. […] The absorbance of the resulting solution was measured at 570 nm using a UVM 340 reader (ASYS Hitech GmbH, Seekirchen am Wallersee, Austria). IC50 values were determined using GraphPad software (GraphPad Prism 8 Software).
# [18] = <4 bactericidal, ≥4 bacteriostatic
smiles,measurement,setting,value
Cn1cc([N+](=O)[O-])nc1C(=O)NNC(=S)Nc1ccc(C(F)(F)F)cc1 [Compound 14],MBC,[1],500 µg/mL
same,MIC,[1],62.5 µg/mL
same,MBC/MIC Ratio,[1]; [18],8
same,MBC,[2],31.25 µg/mL
same,MIC,[2],31.25 µg/mL
same,MBC/MIC Ratio,[2]; [18],1
same,MBC,[3],250 µg/mL
same,MIC,[3],31.25 µg/mL
same,MBC/MIC Ratio,[3]; [18],8
same,MBC,[4],500 µg/mL
same,MIC,[4],62.5 µg/mL
same,"MBC (range, C. parapsilosis ATCC 22019 and C. tropicalis ATCC 1369)",[5],500 to 1000 µg/mL
same,"MIC (range, C. parapsilosis ATCC 22019 and C. tropicalis ATCC 1369)",[5],62.5 to 1000 µg/mL
same,MIC,[6],>1000 µg/mL
same,MIC (range or value for several Gram-positive strains),[7],31.25 to 62.5 µg/mL
same,MIC,[8],>1000 µg/mL
same,MIC,[9],>1000 µg/mL
same,MIC,[10],>1000 µg/mL
same,MBC,[11],>1000 µg/mL
same,MIC,[11],31.25 µg/mL
same,MBC,[12],500 µg/mL
same,MIC,[12],31.25 µg/mL
same,MBC/MIC Ratio,[12]; [18],16
same,MFC,[13],500 µg/mL
same,MIC,[13],500 µg/mL
same,MFC/MIC Ratio,"[13]; <4 fungicidal, ≥4 fungistatic",1
same,MIC,[14],>1000 µg/mL
same,MBC,[15],1000 µg/mL
same,MIC,[15],62.5 µg/mL
same,MIC,[16],>1000 µg/mL
"COc1cc(C=NNC(=O)c2nc([N+](=O)[O-])cn2C)ccc1O [Compound 32, N’-[(4-hydroxy-3-methoxyphenyl)methylidene]-1-methyl-4-nitro-1H-imidazole-2-carbohydrazide]",melting point,,241 to 243 °C
same,cytotoxic potential on normal and cancer cell lines,[17],did not show cytotoxic activity
"COc1cc(O)ccc1C=NNC(=O)c1nc([N+](=O)[O-])cn1C [Compound 33, N’-[(4-hydroxy-2-methoxyphenyl)methylidene]-1-methyl-4-nitro-1H-imidazole-2-carbohydrazide]",melting point,,233 to 235 °C
same,cytotoxic potential on normal and cancer cell lines,[17],did not show cytotoxic activity
